ChEMBL document CHEMBL1201862, “PubChem BioAssay data set” (2004)
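Results reflect a 48-hour exposure of cells in 96-well plates to compound at five concentrations. GI50 marks 50% less growth.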 Active and inactive are the calls of the source. No stated cut-off is given here; in the data, active = GI50 up to about 1.1 µM and inactive = higher.

What was measured:
Test in all cases: inhibition of tumour cell growth, NCI panel, 48 h
A498 = tested on: A498
UO-31 = tested on: UO-31
SW-620 = tested on: SW-620
CCRF-CEM = tested on: CCRF-CEM
COLO 205 = tested on: COLO 205
SK-OV-3 = tested on: SK-OV-3
A549 = tested on: A549
ACHN = tested on: ACHN
786-0 = tested on: 786-0
SF-539 = tested on: SF-539
HCT-15 = tested on: HCT-15
SNB-75 = tested on: SNB-75
TK-10 = tested on: TK-10
NCI-H23 = tested on: NCI-H23
KM12 = tested on: KM12
MDA-MB-435 = tested on: MDA-MB-435
M14 = tested on: M14
UACC-257 = tested on: UACC-257
HCT-116 = tested on: HCT-116
SR = tested on: SR

SMILES	GI50 (A498)	GI50 (UO-31)	GI50 (SW-620)	GI50 (CCRF-CEM)	GI50 (COLO 205)	GI50 (SK-OV-3)	GI50 (A549)	GI50 (ACHN)	GI50 (786-0)	GI50 (SF-539)	GI50 (HCT-15)	GI50 (SNB-75)	GI50 (TK-10)	GI50 (NCI-H23)	GI50 (KM12)	GI50 (MDA-MB-435)	GI50 (M14)	GI50 (UACC-257)	GI50 (HCT-116)	GI50 (SR)
COc1ccc(-[n+]2nc(S(=O)(=O)O)c(/C=C/c3ccc(N(C)C)cc3)cc2C#N)cc1	> 100 µM (inactive)	> 100 µM (inactive)	> 100 µM (inactive)	> 100 µM (inactive)	> 100 µM (inactive)	> 100 µM (inactive)	> 100 µM (inactive)	> 100 µM (inactive)	> 100 µM (inactive)	> 100 µM (inactive)	> 100 µM	> 100 µM (inactive)	> 100 µM (inactive)	> 100 µM (inactive)	> 100 µM (inactive)	> 100 µM (inactive)	> 100 µM (inactive)	> 100 µM (inactive)	> 100 µM (inactive)	
C/C(=N\NC(=S)N1CCN(C)CC1)c1nc2cccnc2[nH]1	> 100 µM (inactive)	32 µM (inactive)	> 100 µM (inactive)	> 100 µM (inactive)	> 100 µM (inactive)	> 100 µM (inactive)	> 100 µM (inactive)	> 100 µM (inactive)	> 100 µM (inactive)	> 100 µM (inactive)	> 100 µM	> 100 µM (inactive)	54.7 µM (inactive)	> 100 µM (inactive)	> 100 µM (inactive)	> 100 µM (inactive)	> 100 µM (inactive)	> 100 µM (inactive)		
COc1ccc(-c2nc(SCC(=O)N/N=C/c3ccc(O)c(OC)c3)[nH]c2-c2ccc(OC)cc2)cc1	18.8 µM (inactive)	34.7 µM (inactive)	30.8 µM (inactive)	3.44 µM (inactive)	19.8 µM (inactive)	29.4 µM (inactive)	34.9 µM (inactive)	18.2 µM (inactive)	19.8 µM (inactive)	21.4 µM (inactive)	24.2 µM	47.5 µM (inactive)	41 µM (inactive)	21.9 µM (inactive)	33.3 µM (inactive)	32.4 µM (inactive)	22.9 µM (inactive)	25.5 µM (inactive)	17.9 µM (inactive)	
O=C1c2ccccc2-c2c1c(-c1cccc(Br)c1)nc1ccc3ccccc3c21	> 100 µM (inactive)	> 100 µM (inactive)	> 100 µM (inactive)	> 100 µM (inactive)	> 100 µM (inactive)	> 100 µM (inactive)	> 100 µM (inactive)	> 100 µM (inactive)	> 100 µM (inactive)	> 100 µM (inactive)	> 100 µM	> 100 µM (inactive)		> 100 µM (inactive)	> 100 µM (inactive)	> 100 µM (inactive)	> 100 µM (inactive)	> 100 µM (inactive)	> 100 µM (inactive)	
COc1ccc(-c2nc(-c3cc4c(ccc5ccccc54)oc3=O)cs2)cc1		> 100 µM (inactive)	> 100 µM (inactive)	> 100 µM (inactive)	> 100 µM (inactive)	> 100 µM (inactive)	> 100 µM (inactive)	> 100 µM (inactive)	33.2 µM (inactive)	> 100 µM (inactive)	> 100 µM	66.5 µM (inactive)	> 100 µM (inactive)		> 100 µM (inactive)	> 100 µM (inactive)	> 100 µM (inactive)	> 100 µM (inactive)	59.8 µM (inactive)	> 100 µM (inactive)
Cc1cn(CCCCCCC2=NCCCN2)c(=O)[nH]c1=O	> 100 µM (inactive)	> 100 µM (inactive)	> 100 µM (inactive)	> 100 µM (inactive)	> 100 µM (inactive)	> 100 µM (inactive)	> 100 µM (inactive)	> 100 µM (inactive)	> 100 µM (inactive)	> 100 µM (inactive)	> 100 µM	> 100 µM (inactive)	> 100 µM (inactive)	> 100 µM (inactive)	> 100 µM (inactive)	> 100 µM (inactive)	> 100 µM (inactive)	> 100 µM (inactive)	> 100 µM (inactive)	
